Experimental data: patent publication USRE35886E, “Phosphonic acid derivatives and use thereof” (Takeda Chemical Industries, Ltd., priority 1991, dated 1998)
Where a SMILES comes first, the peptide text is derived from it. Where no end group is shown, it is not given here. [ ]: non-standard residue; d: D form. The star is where a group is joined. Sta = CC(C)C[C@H](N)[C@@H](O)CC(=O)O; Isovaleryl = CC(C)CC(=O)*

target: T1, Endothelin-Converting Enzyme (Sus scrofa, UniProt A0A8W4FBH0); test: Measurement of endothelin-converting enzyme inhibiting activity of phosphonic acid derivatives (pig big endothelin I (1-39) substrate, endothelin I sandwich enzyme immunoassay); assay type: biochemical; conditions: 37° C., 1 hour, pH 7.2, pig lung solubilized membrane fraction
T1 construct: 1.0% Triton X-100 was added to solubilize enzyme activity; from tissue; host or cells: pig lung, solubilised 100,000×G membrane fraction
T1 sequence (A0A8W4FBH0 1-751): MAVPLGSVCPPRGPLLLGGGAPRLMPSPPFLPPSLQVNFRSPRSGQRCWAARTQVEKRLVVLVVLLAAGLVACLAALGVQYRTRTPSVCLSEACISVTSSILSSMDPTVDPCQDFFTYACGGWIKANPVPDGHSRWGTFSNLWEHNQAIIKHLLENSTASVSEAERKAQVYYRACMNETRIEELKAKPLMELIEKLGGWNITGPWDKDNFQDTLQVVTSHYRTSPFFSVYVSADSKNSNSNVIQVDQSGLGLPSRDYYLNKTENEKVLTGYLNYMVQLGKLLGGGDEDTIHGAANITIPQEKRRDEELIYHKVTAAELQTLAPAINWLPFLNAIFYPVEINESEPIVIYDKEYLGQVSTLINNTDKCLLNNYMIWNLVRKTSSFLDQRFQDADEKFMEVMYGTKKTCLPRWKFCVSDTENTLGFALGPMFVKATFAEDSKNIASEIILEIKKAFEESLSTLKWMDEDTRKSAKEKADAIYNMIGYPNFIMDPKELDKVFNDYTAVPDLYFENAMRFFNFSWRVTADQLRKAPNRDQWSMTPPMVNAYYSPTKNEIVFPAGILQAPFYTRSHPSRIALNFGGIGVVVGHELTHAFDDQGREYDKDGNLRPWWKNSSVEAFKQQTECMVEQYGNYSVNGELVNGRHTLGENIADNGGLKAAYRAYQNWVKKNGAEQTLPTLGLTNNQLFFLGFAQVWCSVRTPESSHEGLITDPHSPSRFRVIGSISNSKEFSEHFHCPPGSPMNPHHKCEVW
Protocol: Measurement of Endothelin-Converting Enzyme Inhibiting Activity of Phosphonic Acid Amide Derivatives
In 1.5-ml centrifugal tube (BIO-BIK), 80 μl of 50 mM bis-Trispropane-hydrochloric acid buffer (pH 7.2) supplemented with 1.0 mg/ml bovine serum albumin, 0.1M sodium chloride, 1.0 mM phenylmethanesulfonyl fluoride (PMSF, Wako Pure Cnemical Industries), 1.0 μg/ml leupeptin (Peptide Institute Inc.), 1.0 μg/ml chymostatin (Peptide Institute Inc.), 1.0 μg/ml pepstatin A (Peptide Institute Inc.), 1.0 μM E-64 (Peptide Institute Inc.), 1.0 μm thiorphan (Sigma) and 1.0 μM angiotensin-converting enzyme inhibitor [CV-5975, Inada et al., Japanese Journal of Pharmacology, 47, 135-141 (1988)], 5 μl of a sample solution to be tested (an aqueous solution or an aqueous solution containing 2% dimethyl sulfoxide) or 5 μl of distilled water for the control plot, and 10 μl of an endothelin-converting enzyme sample prepared as described in the following reference example were placed. After standing at 37° C. for 30 minutes, 5 μl of a substrate solution [physiological phosphate buffer (PBS, containing 0.2 g of potassium chloride, 0.2 g of potassium dihydrogenphosphate, 8.0 g of sodium chloride and 1.14 g of disodium hydrogenphosphate in 1,000 ml of distilled water) supplemented with 1.0×10^-6 M pig big endothelin I (1-39) (Peptide Institute Inc.) and 1.0 mg/ml bovine serum albumin] was added thereto to initiate enzyme reaction. After reaction at 37° C. for 1 hour, the reaction mixture was boiled in boiling water for 5 minutes, thereby terminating the reaction: The resulting insoluble material was removed by centrifugation, and endothelin I (1-21) produced by the enzyme reaction contained in 10 μl of the supernatant was quantified by the endothelin I-specific sandwich enzyme immunoassay method already established [Suzuki et al., J. Immuno. Meth., 188, 245-250 (1989)], and compared with the amount of endothelin produced in the control plot to evaluate the enzyme inhibiting activity.
As endothelin-converting enzymes existing in organisms, two kinds of metalloenzymes different in enzymological properties are generally known. One exits in the cytoplasms, and the other is membrane-bound. The latter is characterized by that it is inhibited with phosphoramidon known as an inhibitor for metalloproteases [Matsumura et al., FEBS Lett., 272, 166-170 (1990)]. The endothelin-converting enzyme in the present invention means the membrane-bound enzyme of these two kinds of enzymes.
(§1) About 500 g of the pig lung (of one pig) was sliced and disrupted in 2.0 liter of PBS supplemented with 0.05% sodium azide, 1.0 mM dithiothreitol, 1.0 mM PMSF, 1.0 μg/ml leupeptin, 1.0 μg/ml chymostatin, 1.0 μg/ml pepstatin A and 1.0 μM E-64, and then homogenized (1 minute×5 times) by a Polytron mixer ([…]). The centrifuged supernatant (240×G, 5 minutes) was further centrifuged at 10,000×G for 15 minutes, and the resulting supernatant was subjected to ultracentrifuge (100,000×G, 90 minutes) to obtain membrane fraction as a precipitate. To this precipitate, 1.0% Triton X-100 was added to solubilize enzyme activity. […] This was diluted to 2.0 mg of protein/ml to use for assaying the activity of enzyme inhibitors.

Row | IC50 [µM] | Molecule
1 | 0.2 | CC(C)C[C@H](NP(=O)(O)Cc1cccc2ccccc12)C(=O)N[C@@H](Cc1c[nH]c2ccccc12)C(=O)O [N-(1-Naphthylmethylphosphonyl)-Leu-Trp.2Na]
2 | 1 | CC(C)C[C@H](NP(=O)(O)Cc1ccc2ccccc2c1)C(=O)N[C@@H](Cc1c[nH]c2ccccc12)C(=O)O [N-(2-Naphthylmethylphosphonyl)-Leu-Trp.2Na]
3 | 0.7 | CC(C)CCP(=O)(O)N[C@@H](CC(C)C)C(=O)N[C@@H](Cc1c[nH]c2ccccc12)C(=O)O [N-(Isoamylphosphonyl)-Leu--Trp.2Na, N-(Isoamylphosphonyl)-Leu-Trp.2Na]
4 | 1 | O=C(O)[C@H](Cc1c[nH]c2ccccc12)NC(=O)[C@H](CC1CCCCC1)NP(=O)(O)CCc1ccccc1 [N-(Phenethylphosphonyl)-Cha--Trp.2Na, N-(Phenethylphosphonyl)-Cha-Trp.2Na]
5 | 1.2 | CC[C@H](C)[C@H](NP(=O)(O)CCc1ccccc1)C(=O)N[C@@H](Cc1c[nH]c2ccccc12)C(=O)O [N-(Phenethylphosphonyl)-Ile--Trp.2Na, N-(Phenethylphosphonyl)-Ile-Trp.2Na]
6 | 4.8 | CC(C)C[C@H](NC(=O)[C@H](CC(C)C)NP(=O)(O)CCc1ccccc1)C(=O)O [N-(Phenethylphosphonyl)-Leu--Leu.2Na, N-(Phenethylphosphonyl)-Leu-Leu.2Na]
7 | 5.7 | CC(C)C[C@H](NP(=O)(O)CCc1ccccc1)C(=O)N[C@@H](Cc1ccccc1)C(=O)O [N-(Phenethylphosphonyl)-Leu--Phe.2Na, N-(Phenethylphosphonyl)-Leu-Phe.2Na]
8 | 1.4 | CCCC[C@H](NP(=O)(O)CCc1ccccc1)C(=O)N[C@@H](Cc1c[nH]c2ccccc12)C(=O)O [N-(Phenethylphosphonyl)-Nle--Trp.2Na, N-(Phenethylphosphonyl)-Nle-Trp.2Na]
9 | 0.5 | O=C(O)[C@H](Cc1c[nH]c2ccccc12)NC(=O)[C@H](Cc1ccccc1)NP(=O)(O)CCc1ccccc1 [N-(Phenethylphosphonyl)-Phe--Trp.Na, N-(Phenethylphosphonyl)-Phe-Trp.2Na]
10 | 2.8 | CC(C)[C@H](NP(=O)(O)CCc1ccccc1)C(=O)N[C@@H](Cc1c[nH]c2ccccc12)C(=O)O [N-(Phenethylphosphonyl)-Val--Trp.2Na, N-(Phenethylphosphonyl)-Val-Trp.2Na]
11 | 0.4 | CC(C)C[C@H](NP(=O)(O)CCc1cccc2ccccc12)C(=O)N[C@@H](Cc1c[nH]c2ccccc12)C(=O)O [N-[2-(1-Naphthyl)ethylphosphonyl]-Leu-Trp.2Na]
12 | 0.1 | CC(C)C[C@H](NP(=O)(O)CCc1ccc2ccccc2c1)C(=O)N[C@@H](Cc1c[nH]c2ccccc12)C(=O)O [N-[2-(2-Naphthyl)ethylphosphonyl]-Leu-Trp.2Na]

Row | Molecule | IC50 [µM]
13 | CC(C)C[C@H](NP(=O)(O)CCc1ccccc1)C(=O)N[C@@H](Cc1c[nH]c2ccccc12)C(=O)O [N-(Phenethylphosphonyl)-Leu--Trp.2Na, N-(Phenethylphosphonyl)-Leu-Trp.2Na] | 0.2

target: T1, Endothelin-Converting Enzyme; test: Inhibition effect of various protease inhibitors on endothelin-converting enzyme; assay type: biochemical, pig; conditions: Concentration 100 μM; read-out: Inhibiting Ratio (%)
Protocol: as §1

Row | Molecule | inhibition at 100 µM [%]
14 | CC(C)C[C@H](NC(=O)[C@@H](NC(=O)N[C@@H](Cc1ccccc1)C(=O)O)[C@@H]1CCN=C(N)N1)C(=O)N[C@H](C=O)Cc1ccccc1 [Chymostatin] | 2
15 | CC(C)C[C@H](NC(=O)[C@H]1O[C@@H]1C(=O)O)C(=O)NCCCCN=C(N)N [Example E-64] | 9
16 | CC(=O)N[C@@H](CC(C)C)C(=O)N[C@@H](CC(C)C)C(=O)N[C@H](C=O)CCCNC(=N)N [Leupeptin] | 23
17 | CC(C)CC(=O)N[C@H](C(=O)N[C@H](C(=O)N[C@@H](CC(C)C)[C@@H](O)CC(=O)N[C@@H](C)C(=O)N[C@@H](CC(C)C)[C@@H](O)CC(=O)O)C(C)C)C(C)C [Pepstatin] (Isovaleryl-VV[Sta]A[Sta]-OH) | 20
18 | CC(C)C[C@H](NP(=O)(O)O[C@@H]1O[C@@H](C)[C@H](O)[C@@H](O)[C@H]1O)C(=O)N[C@@H](Cc1c[nH]c2ccccc12)C(=O)O [Phosphoramidone] | 70

same assay, conditions: Concentration 1000 μM

Row | Molecule | Inhibiting Ratio (%)
19 | O=S(=O)(F)Cc1ccccc1 [PMSF, phenylmethanesulfonyl fluoride] | 32

same assay, conditions: Concentration 1000 μM; read-out: Inhibiting Ratio (%)

Row | inhibition at 1000 µM [%] | Molecule
20 | 96 | O[C@H](CS)[C@H](O)CS (racemic) [Dithiothreitol]
21 | 92 | c1cnc2c(c1)ccc1cccnc12 [o-Phenanthroline]

same assay, conditions: read-out: Inhibiting Ratio (%)

Row | Molecule | inhibition at 1000 µM [%]
22 | O=C(O)CN(CCN(CC(=O)O)CC(=O)O)CC(=O)O [Ethylenediaminetetraacetic acid] | 70

target: T1, Endothelin-Converting Enzyme; test: Kinetic coefficient (Lineweaver-Burk plot); assay type: biochemical; conditions: substrate pig big endothelin, read-out: Michaelis coefficient
Protocol: The Michaelis coefficient of this enzyme to pig big endothelin was calculated to be about 5×10^-6 M from the Lineweaver-Burk plot.

Row | Molecule | Km [µM]
23 | pig big endothelin: substrate; pig big endothelin I (1-39) (Peptide Institute Inc.) (CSCSSLMDKECVYFCHLDIIWVNTPEHIVPYGLGSPSRS; ends and bridges not checked; cysteine pairing not given here; UniProt P09558 53-91, looked up, fragment) | ~5

tested on: membrane-bound endothelin-converting enzyme; test: not given; conditions: FEBS Lett., 272, 166-170 (1990); cited from earlier work

Row | Molecule | inhibition of membrane-bound enzyme (in words)
24 | CC(C)C[C@H](NP(=O)(O)O[C@@H]1O[C@@H](C)[C@H](O)[C@@H](O)[C@H]1O)C(=O)N[C@@H](Cc1c[nH]c2ccccc12)C(=O)O [Phosphoramidone] | inhibited
